Data published in patent US20120149718A1, “Amido Compounds” (priority 2010, published 2012).

Target: T1, human P2X7 (Homo sapiens, UniProt Q99572)
T1 construct: 1321N1 cells stably expressing the full length human P2X7 gene (1321N1-hP2X7)
T1 sequence (Q99572 1-595): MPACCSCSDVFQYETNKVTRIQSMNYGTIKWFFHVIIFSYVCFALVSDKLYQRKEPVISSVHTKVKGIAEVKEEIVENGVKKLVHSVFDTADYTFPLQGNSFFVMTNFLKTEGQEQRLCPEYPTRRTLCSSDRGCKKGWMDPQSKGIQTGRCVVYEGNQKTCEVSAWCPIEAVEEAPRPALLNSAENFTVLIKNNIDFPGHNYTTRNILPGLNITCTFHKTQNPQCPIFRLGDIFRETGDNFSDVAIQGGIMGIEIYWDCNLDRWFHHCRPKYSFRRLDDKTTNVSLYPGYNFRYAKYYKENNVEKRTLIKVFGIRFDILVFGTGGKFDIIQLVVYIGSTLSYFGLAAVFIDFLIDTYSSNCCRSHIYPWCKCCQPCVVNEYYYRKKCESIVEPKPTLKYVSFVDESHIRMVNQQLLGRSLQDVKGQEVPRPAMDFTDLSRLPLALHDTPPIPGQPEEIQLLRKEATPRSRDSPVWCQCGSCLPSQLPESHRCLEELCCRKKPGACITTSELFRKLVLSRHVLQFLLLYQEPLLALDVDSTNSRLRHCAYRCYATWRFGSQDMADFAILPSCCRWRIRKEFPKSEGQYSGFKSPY
Assay: Intracellular Calcium Flux (FLIPR) Assay
Type: cell-based
Details: 1321N1 cells stably expressing full length human P2X7; agonist 100 μM BzATP; fluo-3 calcium flux; read-out: FLIPR pIC50 hP2X7-1321n1 (converted)
Description: Stock solutions of compounds were prepared from powders as a 10 mM DMSO stock solution. These solutions were stored at RT during the two week period of these experiments to prevent freeze-thaw of the DMSO stocks. The DMSO stocks were added to the appropriate assay buffer at a concentration of 10 μM, and then diluted serially to the final concentrations that were tested. No observable precipitate was formed at any time during this process. The aqueous solutions of compounds as well as ATP (Sigma A7699) and BzATP (Sigma B6396) were prepared fresh for each day of experiment.
1321N1 cells stably expressing the full length human P2X7 gene (1321N1-hP2X7) and HEK293 cells stably expressing the full length rat P2X7 gene (HEK293-rP2X7) were obtained from the Roche Cell Culture Facility. 1321N1-hP2X7 cells were grown in Dulbecco's Modified Eagle's Medium (DMEM) high glucose supplemented with 10% FBS and 250 μg/mL G418. HEK293-rP2X7 cells were grown in DMEM/F-12 supplemented with 10% FBS, 1 mM CaCl2, 2 mM MgCl2, 2 mM L-Glutamine and 500 μg/ml G418. Cells were split such that they never became >70% confluent.
On the day prior to the experiment, 1321N1-hP2X7 or HEK293-rP2X7 cells were released into suspension with calcium-free PBS+Versene and washed by centrifugation with calcium-free PBS to remove the Versene. Cells were resuspended in growth medium at a density of 2.5×10^5 cells/mL and seeded into black walled, clear bottom 96 well plates (50,000 cells/well) approximately 18 hr prior to intracellular calcium flux experiments.
On the day of the experiment, plates were washed with FLIPR buffer (calcium- and magnesium-free Hank's Balanced Salt Solution (HBSS) supplemented with 10 mM Hepes, 2.5 mM probenecid and 2 mM calcium chloride) using a BIO-TEK 96 channel plate washer and incubated with […] fluo-3 dye at 37° C. for one hr. The dye was then removed by plate washing and the cells were allowed to equilibrate for 20 min at room temperature with antagonist or vehicle (FLIPR buffer). Agonist (100 μM BzATP final concentration for hP2X7; 5 μM BzATP final concentration or rP2X7) was added online with the FLIPR and fluorescence measurements made at 1 sec intervals for 60 sec followed by 3 sec intervals for a further 4 min (5 min total). A final addition of 5 μM ionomycin was made and the maximal BzATP-evoked fluorescence normalized to the maximal ionomycin-evoked fluorescence.

Row | SMILES | IC50 [nM]
1 | Cc1ccccc1C[C@H](C(=O)Nc1nc2ccccc2o1)c1ccc(S(C)(=O)=O)cc1 [Compound I-10, (S)—N-Benzooxazol-2-yl-2-(4-methanesulfonyl-phenyl)-3-o-tolyl-propionamide] | 427
2 | Cc1ccccc1C[C@@H](C(=O)Nc1nc2ccccc2o1)c1ccc(S(C)(=O)=O)cc1 [Compound I-11, (R)—N-Benzooxazol-2-yl-2-(4-methanesulfonyl-phenyl)-3-o-tolyl-propionamide] | 81.3
3 | CS(=O)(=O)c1ccc(C(Cc2ccc(F)cc2)C(=O)Nc2cnc(Br)cn2)cc1 (centres unmarked) [Compound I-13, N-(5-Bromo-pyrazin-2-yl)-3-(4-fluoro-phenyl)-2-(4-methanesulfonyl-phenyl)-propionamide] | 813
4 | CS(=O)(=O)c1ccc(C(Cc2ccc(F)cc2)C(=O)Nc2cnc(CO)cn2)cc1 (centres unmarked) [Compound I-16, 3-(4-Fluoro-phenyl)-N-(5-hydroxymethyl-pyrazin-2-yl)-2-(4-methanesulfonyl-phenyl)-propionamide] | 117
5 | CC(C)(O)c1cnc(NC(=O)C(Cc2ccc(F)cc2)c2ccc(S(C)(=O)=O)cc2)cn1 (centres unmarked) [Compound I-17, 3-(4-Fluoro-phenyl)-N-[5-(1-hydroxy-1-methyl-ethyl)-pyrazin-2-yl]-2-(4-methanesulfonyl-phenyl)-propionamide] | 1070
6 | COCCN(C)Cc1cnc(NC(=O)C(Cc2ccc(F)cc2)c2ccc(S(C)(=O)=O)cc2)cn1 (centres unmarked) [Compound I-23, 3-(4-Fluoro-phenyl)-2-(4-methanesulfonyl-phenyl)-N-(5-{[(2-methoxy-ethyl)-methyl-amino]-methyl}-pyrazin-2-yl)-propionamide] | 646
7 | CN(Cc1ccccc1)Cc1cnc(NC(=O)C(Cc2ccc(F)cc2)c2ccc(S(C)(=O)=O)cc2)cn1 (centres unmarked) [Compound I-24, N-{5-[(Benzyl-methyl-amino)-methyl]-pyrazin-2-yl}-3-(4-fluoro-phenyl)-2-(4-methanesulfonyl-phenyl)-propionamide] | 1050
8 | Cc1cc(S(C)(=O)=O)ccc1C(Cc1ccc(F)cc1)C(=O)Nc1nc2ccccc2o1 (centres unmarked) [Compound I-27, N-Benzooxazol-2-yl-3-(4-fluoro-phenyl)-2-(4-methanesulfonyl-2-methyl-phenyl)-propionamide] | 204
9 | O=C(Nc1nc2ccccc2o1)C(Cc1ccc(F)cc1)c1ccc(F)cc1 (centres unmarked) [Compound I-28, N-Benzooxazol-2-yl-2,3-bis-(4-fluoro-phenyl)-propionamide] | 437
10 | Cc1cccc2oc(NC(=O)C(Cc3ccc(F)cc3)c3ccc(S(C)(=O)=O)cc3)nc12 (centres unmarked) [Compound I-35, 3-(4-Fluoro-phenyl)-2-(4-methanesulfonyl-phenyl)-N-(4-methyl-benzooxazol-2-yl)-propionamide] | 468
11 | Cc1ccc2nc(NC(=O)C(Cc3ccc(F)cc3)c3ccc(S(C)(=O)=O)cc3)oc2c1 (centres unmarked) [Compound I-36, 3-(4-Fluoro-phenyl)-2-(4-methanesulfonyl-phenyl)-N-(6-methyl-benzooxazol-2-yl)-propionamide] | 191
12 | Cc1ccc2oc(NC(=O)C(Cc3ccc(F)cc3)c3ccc(S(C)(=O)=O)cc3)nc2c1 (centres unmarked) [Compound I-37, 3-(4-Fluoro-phenyl)-2-(4-methanesulfonyl-phenyl)-N-(5-methyl-benzooxazol-2-yl)-propionamide] | 166
13 | CS(=O)(=O)c1ccc(C(Cc2ccc(F)cc2)C(=O)Nc2nc3ccc(Cl)cc3o2)cc1 (centres unmarked) [Compound I-38, N-(6-Chloro-benzooxazol-2-yl)-3-(4-fluoro-phenyl)-2-(4-methanesulfonyl-phenyl)-propionamide] | 316
14 | CS(=O)(=O)c1ccc(C(Cc2ccc(F)cc2)C(=O)Nc2nc3cc(Cl)ccc3o2)cc1 (centres unmarked) [Compound I-39, N-(5-Chloro-benzooxazol-2-yl)-3-(4-fluoro-phenyl)-2-(4-methanesulfonyl-phenyl)-propionamide] | 126
15 | CS(=O)(=O)c1ccc(C(Cc2ccc(F)cc2)C(=O)Nc2nc3ccc(F)cc3o2)cc1 (centres unmarked) [Compound I-40, N-(6-Fluoro-benzooxazol-2-yl)-3-(4-fluoro-phenyl)-2-(4-methanesulfonyl-phenyl)-propionamide] | 38.9

Continued, values first:

Row | IC50 [nM] | SMILES
16 | 115 | CS(=O)(=O)c1ccc(C(Cc2ccc(F)cc2)C(=O)Nc2nc3cc(C(F)(F)F)ccc3o2)cc1 (centres unmarked) [Compound I-41, 3-(4-Fluoro-phenyl)-2-(4-methanesulfonyl-phenyl)-N-(5-trifluoromethyl-benzooxazol-2-yl)-propionamide]
17 | 28.8 | Cc1cccc2nc(NC(=O)C(Cc3ccc(F)cc3)c3ccc(S(C)(=O)=O)cc3)oc12 (centres unmarked) [Compound I-42, 3-(4-Fluoro-phenyl)-2-(4-methanesulfonyl-phenyl)-N-(7-methyl-benzooxazol-2-yl)-propionamide]
18 | 102 | Cc1cc(C)c2oc(NC(=O)C(Cc3ccc(F)cc3)c3ccc(S(C)(=O)=O)cc3)nc2c1 (centres unmarked) [Compound I-43, N-(5,7-Dimethyl-benzooxazol-2-yl)-3-(4-fluoro-phenyl)-2-(4-methanesulfonyl-phenyl)-propionamide]
19 | 75.9 | COc1ccc2oc(NC(=O)C(Cc3ccc(F)cc3)c3ccc(S(C)(=O)=O)cc3)nc2c1 (centres unmarked) [Compound I-44, 3-(4-Fluoro-phenyl)-2-(4-methanesulfonyl-phenyl)-N-(5-methoxy-benzooxazol-2-yl)-propionamide]
20 | 617 | COC(=O)c1ccc2nc(NC(=O)C(Cc3ccc(F)cc3)c3ccc(S(C)(=O)=O)cc3)oc2c1 (centres unmarked) [Compound I-45, 2-[3-(4-Fluoro-phenyl)-2-(4-methanesulfonyl-phenyl)-propionylamino]-benzooxazole-6-carboxylic acid methyl ester]
21 | 44.7 | CS(=O)(=O)c1ccc(C(Cc2ccc(F)cc2)C(=O)Nc2nc3cc(F)ccc3o2)cc1 (centres unmarked) [Compound I-46, N-(5-Fluoro-benzooxazol-2-yl)-3-(4-fluoro-phenyl)-2-(4-methanesulfonyl-phenyl)-propionamide]
22 | 170 | CS(=O)(=O)c1ccc(C(Cc2ccc(F)cc2)C(=O)Nc2nc3cc(S(=O)(=O)N4CCCC4)ccc3o2)cc1 (centres unmarked) [Compound I-47, 3-(4-Fluoro-phenyl)-2-(4-methanesulfonyl-phenyl)-N-[5-(pyrrolidine-1-sulfonyl)-benzooxazol-2-yl]-propionamide]
23 | 295 | CS(=O)(=O)c1ccc(C(Cc2ccc(F)cc2)C(=O)Nc2ncc(-c3ccccc3)o2)cc1 (centres unmarked) [Compound I-48, 3-(4-Fluoro-phenyl)-2-(4-methanesulfonyl-phenyl)-N-(5-phenyl-oxazol-2-yl)-propionamide]
24 | 871 | CC(=O)OCc1cnc(NC(=O)C(Cc2ccc(F)cc2)c2ccc(S(C)(=O)=O)cc2)cn1 (centres unmarked) [Compound I-49, Acetic acid 5-[3-(4-fluoro-phenyl)-2-(4-methanesulfonyl-phenyl)-propionylamino]-pyrazin-2-ylmethyl ester]
25 | 380 | CS(=O)(=O)c1ccc([C@@H](Cc2ccc(F)cc2)C(=O)Nc2cnc(CO)cn2)cc1 [Compound I-50a, (R)-3-(4-Fluoro-phenyl)-N-(5-hydroxymethyl-pyrazin-2-yl)-2-(4-methanesulfonyl-phenyl)-propionamide]
26 | > 10000 | CS(=O)(=O)c1ccc([C@H](Cc2ccc(F)cc2)C(=O)Nc2cnc(CO)cn2)cc1 [Compound I-50b, (S)-3-(4-Fluoro-phenyl)-N-(5-hydroxymethyl-pyrazin-2-yl)-2-(4-methanesulfonyl-phenyl)-propionamide]
